The text below walks through data of patent publication EP3436445B1, “HISTONE DEMETHYLASE INHIBITORS” (Celgene Quanticel Research, Inc., priority 2016, dated 2017).

The target in one assay is T1, FBXL10 (Homo sapiens, UniProt Q8NHM5).
T1 construct: purchased BPS Bioscience 50120
T1 sequence (Q8NHM5 1-650): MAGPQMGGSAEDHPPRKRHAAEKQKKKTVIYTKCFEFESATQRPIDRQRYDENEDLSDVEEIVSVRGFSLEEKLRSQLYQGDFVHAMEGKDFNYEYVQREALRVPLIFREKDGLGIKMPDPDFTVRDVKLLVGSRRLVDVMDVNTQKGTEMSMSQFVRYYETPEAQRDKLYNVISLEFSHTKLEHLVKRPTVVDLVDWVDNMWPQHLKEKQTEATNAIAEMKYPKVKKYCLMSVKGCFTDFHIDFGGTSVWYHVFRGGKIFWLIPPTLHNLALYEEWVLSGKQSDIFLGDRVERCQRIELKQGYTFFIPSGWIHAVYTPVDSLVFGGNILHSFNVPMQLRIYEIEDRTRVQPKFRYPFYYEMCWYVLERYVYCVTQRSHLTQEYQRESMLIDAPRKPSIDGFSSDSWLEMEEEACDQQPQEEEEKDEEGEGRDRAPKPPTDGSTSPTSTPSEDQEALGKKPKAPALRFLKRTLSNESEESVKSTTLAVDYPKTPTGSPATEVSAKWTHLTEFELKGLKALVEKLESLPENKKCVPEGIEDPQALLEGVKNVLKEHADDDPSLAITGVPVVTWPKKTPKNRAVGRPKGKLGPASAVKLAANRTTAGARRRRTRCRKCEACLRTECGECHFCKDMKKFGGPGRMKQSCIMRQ
Nature of the assay: FBXL10 in vitro enzyme inhibition assay (AlphaScreen). The conditions noted are these: Table 3; 0.3 nM FBXL10, H3K36me2-biotin labeled peptide. It counts as biochemical. An excerpt:
(§1) This assay determines the ability of a test compound to inhibit FBXL11, FBXL10, and PHF8 demethylase activity. Baculovirus expressed FBXL11 (GenBank Accession #NM_012308, AA1-1162) was purchased from BPS Bioscience (Cat#50102). Baculovirus expressed FBXL10 (GenBank Accession #NM_032590, AA 1-650) was purchased from BPS Bioscience (Cat #50120). Baculovirus expressed PHF8 (GenBank Accession NP_055922.1) was purchased from Active Motif (Cat#31435).
The ability of test compounds to inhibit the activity of FBXL10 was determined in 384-well plate format under the following reaction conditions: 0.3 nM FBXL10, 30 nM H3K36me2-biotin labeled peptide (Anaspec cat # 64442), 0.2 µM alpha-ketoglutaric acid in assay buffer of 50 mM HEPES, pH7.3, 0.005% Brij35, 0.5 mM TCEP, 0.2 mg/ml BSA, 50 µM sodium L-ascorbate, 5 µM ammonium iron(II) sulfate. Reaction product is determined quantitatively by AlphaScreen detection after the addition of detection reagents anti-H3K36me1 antibody, AlphaScreen® Streptavidin-coated Donor beads, and AlphaScreen® Protein A Acceptor beads in 50 mM HEPES, pH7.3, 10 mM NaCl, 0.005% Brij35, 5 mM EDTA, 2 mg/ml BSA to final 10 µg/ml beads.
The assay reaction was initiated by the following: 3 µl of the mixture of 90 nM H3K36me2-biotin labeled peptide and 0.6 µM alpha-ketoglutaric acid with 3 µl of 11-point serial diluted inhibitor in 3% DMSO are added to each well of 384 well Proxiplate (Perkin Elmer), followed by the addition of 3 µl of 0.9 nM FBXL10 to initiate the reaction. The reaction mixture is incubated at room temperature for 1 hour, and terminated by the addition of 3 µl of appropriate dilution of anti H3K36me1 antibody in 50 mM HEPES, pH7.3, 10 mM NaCl, 0.005% Brij35, 5 mM EDTA, 2 mg/ml BSA. Plates will then incubated at room temperature for 40 minutes, followed by addition of 3 µl of 50 µg/ml AlphaScreen® Streptavidin-coated Donor beads and AlphaScreen® Protein A Acceptor beads in 50 mM HEPES, pH7.3, 10 mM NaCl, 0.005% Brij35, 5 mM EDTA, 2 mg/ml BSA. Plates will then be read by EnVision Multilabel Reader in AlphaScreen mode after minimum 2 hour incubation at room temperature. The AlphaScreen signal for each well is used to determine inhibition constant (IC50).

For a further assay, the target named is T2, PHF8 (Homo sapiens, UniProt Q9UPP1).
T2 construct: purchased Active Motif 31435
Nature of the assay: PHF8 in vitro enzyme inhibition assay (TR-FRET). Type of assay: biochemical. The conditions noted are these: Table 3; 3 nM PHF8, H3K9me1-biotin labeled peptide.
Text: as §1
The ability of test compounds to inhibit the activity of PHF8 was determined in 384-well plate format under the following reaction conditions: 3 nM PHF8, 200 nM H3K9me1-biotin labeled peptide (Anaspec cat #64358), 0.5 µM alpha-ketoglutaric acid in assay buffer of 50 mM HEPES, pH7.3, 0.005% Brij35, 0.5 mM TCEP, 0.2 mg/ml BSA, 50 µM sodium L-ascorbate, and 5 µM ammonium iron(II) sulfate. Reaction product was determined quantitatively by TR-FRET after the addition of detection reagent Phycolink Streptavidin-allophycocyanin (Prozyme) and Europium-anti-unmodified-histone H3 lysine 9/lysine27 (H3K9/K27) antibody (PerkinElmer) in the presence of 5 mM EDTA in LANCE detection buffer (PerkinElmer) at a final concentration of 25 nM and 0.5 nM, respectively.
The assay reaction was initiated by the following: 2 µl of the mixture of 600 nM H3K9me1-biotin labeled peptide and 1.5 µM alpha-ketoglutaric acid with 2 µl of 11-point serial diluted inhibitor in 3% DMSO were added to each well of the plate, followed by the addition of 2 µl of 9 nM PHF8 to initiate the reaction. The reaction mixture was incubated at room temperature for 15 minutes, and terminated by the addition of 6 µl of 5 mM EDTA in LANCE detection buffer containing 50 nM Phycolink Streptavidin-allophycocyanin and 1 nM Europium-anti-unmodified H3K9/K27 antibody. Plates were read by EnVision Multilabel Reader in TR-FRET mode (excitation at 320 nm, emission at 615 nm and 665 nm) after 1 hour incubation at room temperature. A ratio was calculated (665/615) for each well and fitted to determine inhibition constant (IC50).
(In general: Time-resolved FRET reads energy transfer from a long-lived donor to a nearby acceptor.)

In assay [1] the test system is KDM2B-bound genes of the established Mia Paca-2 cancer cell line. In words: Mia Paca-2 pancreatic cell line expression assay for KDM2B-related genes (real-time PCR). Type of assay: cell-based. The conditions noted are these: Homo sapiens; Table 4; Mia Paca-2 cells; read-out: Cellular IC50. An excerpt: Gene expression assay to assess the ability of KDM2B small molecule inhibitors to activate the expression of KDM2B-bound genes of the established Mia Paca-2 cancer cell line.
This gene expression assay is a real-time PCR assay which quantifies the amount of messenger RNA from genes that are normally repressed by KDM2B interacting with EZH2 compared with a control GAPDH gene whose expression is not regulated by KDM2B. The amount of gene expression is correlated to the amount of small molecule inhibition of KDM2B's enzymatic activity.
The established cancer cell line Mia Paca-2 was purchased from American Type Culture Collection (ATCC) and routinely passaged according to ATCC published protocols. Cells were seeded at a density of 40,000 per 96-well. 24 hours after plating, cells received final concentrations of 20nM, 40nM, 80nM and 320nM of test compound. […] At the end of each of the compound incubation period, media was removed and cells were trypsinized according to the ATCC published protocol. mRNA was then harvested from the cell samples using a RNeasy kit (Qiagen). mRNA was quantified and qualified using a Nanodrop machine (Thermo Scientific). mRNA was converted to cDNA using the High-Capacity cDNA Reverse Transcription Kit (Applied Biosystems). […] Data was analyzed using the delta-delta Ct method to calculate fold enrichment over DMSO sample gene expression.
In general terms: In qPCR the cycle at which signal appears reflects the starting amount.

The structures appear in SMILES notation. pIC50: −log10 of the molar value. Bounds are passed on as bounds.

T2 sequence (Q9UPP1 37-1060): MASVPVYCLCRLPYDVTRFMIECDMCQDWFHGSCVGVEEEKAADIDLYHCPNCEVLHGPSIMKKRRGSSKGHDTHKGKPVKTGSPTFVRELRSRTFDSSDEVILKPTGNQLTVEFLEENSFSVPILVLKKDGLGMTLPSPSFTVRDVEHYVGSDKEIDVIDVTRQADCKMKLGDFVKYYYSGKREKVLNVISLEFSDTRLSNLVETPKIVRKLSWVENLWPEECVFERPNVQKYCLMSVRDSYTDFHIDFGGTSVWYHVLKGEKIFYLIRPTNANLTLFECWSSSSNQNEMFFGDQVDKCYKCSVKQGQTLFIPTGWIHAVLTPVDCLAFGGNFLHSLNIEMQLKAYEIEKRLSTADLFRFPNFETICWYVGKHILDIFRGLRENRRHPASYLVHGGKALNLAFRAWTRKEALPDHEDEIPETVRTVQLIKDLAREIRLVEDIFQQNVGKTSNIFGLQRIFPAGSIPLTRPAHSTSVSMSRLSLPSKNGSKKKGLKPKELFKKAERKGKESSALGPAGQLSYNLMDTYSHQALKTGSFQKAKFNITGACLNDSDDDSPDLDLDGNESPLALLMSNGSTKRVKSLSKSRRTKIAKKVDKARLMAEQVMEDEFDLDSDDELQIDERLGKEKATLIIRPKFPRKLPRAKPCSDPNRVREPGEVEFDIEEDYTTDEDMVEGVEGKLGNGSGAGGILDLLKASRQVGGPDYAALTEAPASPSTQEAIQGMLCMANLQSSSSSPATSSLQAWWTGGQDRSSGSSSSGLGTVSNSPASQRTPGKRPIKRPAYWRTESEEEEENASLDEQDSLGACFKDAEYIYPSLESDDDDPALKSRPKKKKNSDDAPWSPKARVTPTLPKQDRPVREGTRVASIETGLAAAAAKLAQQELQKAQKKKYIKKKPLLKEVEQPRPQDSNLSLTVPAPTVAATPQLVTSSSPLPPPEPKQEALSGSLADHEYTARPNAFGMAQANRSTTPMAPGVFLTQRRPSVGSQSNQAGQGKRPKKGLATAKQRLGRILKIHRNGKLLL

By pIC50 is commonly meant the IC50 on a negative log10 scale, so that one unit is a factor of ten. Turning to `Fc1c(Cn2cnc(-c3cc(-c4c[nH]nn4)ccn3)c2)cccc1OC(F)(F)F` [Example 26, 2-[1-[[2-fluoro-3-(trifluoromethoxy)phenyl]methyl]imidazol-4-yl]-4-(1H-triazol-4-yl)pyridine], the pIC50 on FBXL10 was 6.00 to 7.00.
With `CC(Cc1ccccc1)n1cnc(-c2cc(-c3c[nH]nn3)ccn2)c1` (stereo not drawn) [Example 33, 2-[1-(1-phenylpropan-2-yl)imidazol-4-yl]-4-(1H-triazol-4-yl)pyridine], the pIC50 against FBXL10 was 6.00 to 7.00.
For the compound `c1nc(-c2cn(CC3CC3)cn2)cc2[nH]nnc12` [Example 42, 1-(cyclopropylmethyl)-4-{1H-[1,2,3]triazolo[4,5-c]pyridin-6-yl}-1H-imidazole], the negative-log IC50 (pIC50) against FBXL10 is at least 7.00; against PHF8, 5.00 to 6.00.
In the case of `Cn1cnc(-c2cc(-c3nn[nH]c3F)ccn2)c1-c1ccc(F)cc1OCC1CC1` [Example 41, 2-[5-[2-(cyclopropylmethoxy)-4-fluorophenyl]-1-methylimidazol-4-yl]-4-(5-fluoro-1H-triazol-4-yl)pyridine], the pIC50 in assay [1] was 5.00 to 6.00.
The same measure, in the same setting: with `FC(F)(F)c1[nH]nnc1-c1ccnc(-c2cn(CCc3cccc4ccccc34)cn2)c1` [Example 37, 2-[1-(2-naphthalen-1-ylethyl)imidazol-4-yl]-4-[5-(trifluoromethyl)-1H-triazol-4-yl]pyridine] the figure was 6.00 to 7.00.
At FBXL10, `c1ccc(-c2ccccc2CCn2cnc(-c3cc(-c4c[nH]nn4)ccn3)c2)cc1` [Example 27, 2-[1-[2-(2-phenylphenyl)ethyl]imidazol-4-yl]-4-(1H-triazol-4-yl)pyridine] showed a pIC50 of 6.00 to 7.00.
For the compound `Cn1cnc(-c2cc3[nH]nnc3cn2)c1-c1ccc(F)cc1` [Example 53, 5-(4-fluorophenyl)-1-methyl-4-{1H-[1,2,3]triazolo[4,5-c]pyridin-6-yl}-1H-imidazole], the pIC50 at FBXL10 was 6.00 to 7.00; against PHF8, 5.00 to 6.00.
Taken in the same sequence, the figures for `Clc1ccccc1Cn1cnc(-c2cc(-c3cn[nH]n3)ccn2)c1Br` [Example 55, 2-(5-bromo-1-(2-chlorobenzyl)-1H-imidazol-4-yl)-4-(2H-1,2,3-triazol-4-yl)pyridine] were at least 7.00 and 6.00 to 7.00.
`FC(F)(F)Oc1ccccc1CCn1cnc(-c2cc(-c3c[nH]nn3)ccn2)c1` [Example 34]: the values for the pIC50 against FBXL10 and against PHF8 were at least 7.00 and 6.00 to 7.00, respectively.
The matching figures for `Clc1cc(Cl)cc(-n2cnc(-c3cc4[nH]nnc4cn3)c2)c1` [Example 52, 1-(3,5-dichlorophenyl)-4-{1H-[1,2,3]triazolo[4,5-c]pyridin-6-yl}-1H-imidazole]: 6.00 to 7.00 and 5.00 to 6.00.
